Test results as given in PubChem BioAssay (NCI).
Where “and” joins values, the source holds several entries; their conditions need not be identical. Equal values may be shown once.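 Briefly, cells in 96-well plates were exposed to five compound concentrations for 48 h, and endpoints were estimated by linear interpolation. GI50 marks 50% less growth. At the TGI there is no net growth.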

What follows are molecules tested on SK-MEL-2 melanoma (assay: NCI tumour cell line growth inhibition, 48 h).
In the case of Nc1ccc(-c2nc3ccccc3[nH]2)c2ccccc12, the GI50 is reported as 14.2 µM and the TGI is reported as > 100 µM.
With COc1ccc2c(c1OC)C(=O)OC2C1c2c(c([N+](=O)[O-])c3c(c2OC)OCO3)CCN1C (centres undefined) the GI50 was > 100 µM and the TGI was > 100 µM.

The molecules below were run on SK-MEL-28 melanoma (assay: NCI tumour cell line growth inhibition, 48 h).
Nc1ccc(-c2nc3ccccc3[nH]2)c2ccccc12 was tested, and the GI50 was 4.27 µM and the TGI was > 62.1 µM.
For COc1ccc2c(c1OC)C(=O)OC2C1c2c(c([N+](=O)[O-])c3c(c2OC)OCO3)CCN1C (centres undefined), the GI50 was > 100 µM and the TGI was > 100 µM.
In the case of COC1O[C@@H]2C[C@H]3C(C)(C)CCC[C@]3(C)C3=CCCC1[C@@]32C (some centres undefined), the GI50 is reported as > 100 µM and the TGI is reported as > 100 µM.

Each molecule was assayed on SK-MEL-5 melanoma (assay: NCI tumour cell line growth inhibition, 48 h).
COc1cc(C2C3=C(COC3=O)Oc3cc4c(cc32)OCO4)cc(OC)c1OC(C)=O (centres undefined) was tested, and the TGI was 0.0785 µM.
Molecule Nc1ccc(-c2nc3ccccc3[nH]2)c2ccccc12 has a GI50 of 1.65 µM and a TGI of 8.5 µM.
With COc1ccc2c(c1OC)C(=O)OC2C1c2c(c([N+](=O)[O-])c3c(c2OC)OCO3)CCN1C (centres undefined) the GI50 was > 100 µM and the TGI was > 100 µM.
In the case of COC1O[C@@H]2C[C@H]3C(C)(C)CCC[C@]3(C)C3=CCCC1[C@@]32C (some centres undefined), the GI50 is reported as > 100 µM and the TGI is reported as > 100 µM.

What follows are molecules tested on SK-OV-3 ovarian (assay: NCI tumour cell line growth inhibition, 48 h).
Nc1ccc(-c2nc3ccccc3[nH]2)c2ccccc12 showed a GI50 of 3.23 µM and a TGI of 57.5 µM.
COc1ccc2c(c1OC)C(=O)OC2C1c2c(c([N+](=O)[O-])c3c(c2OC)OCO3)CCN1C (centres undefined) was tested, and the GI50 was > 100 µM and the TGI was > 100 µM.

What follows are molecules tested on SN12C renal (assay: NCI tumour cell line growth inhibition, 48 h).
With COc1cc(C2C3=C(COC3=O)Oc3cc4c(cc32)OCO4)cc(OC)c1OC(C)=O (centres undefined) the TGI was > 100 µM.
In the case of Nc1ccc(-c2nc3ccccc3[nH]2)c2ccccc12, the GI50 is reported as 10.1 µM and the TGI is reported as 59.7 µM.
With COc1ccc2c(c1OC)C(=O)OC2C1c2c(c([N+](=O)[O-])c3c(c2OC)OCO3)CCN1C (centres undefined) the GI50 was > 100 µM and the TGI was > 100 µM.
In the case of COC1O[C@@H]2C[C@H]3C(C)(C)CCC[C@]3(C)C3=CCCC1[C@@]32C (some centres undefined), the GI50 is reported as > 100 µM and the TGI is reported as > 100 µM.

What follows are molecules tested on SNB-19 CNS (assay: NCI tumour cell line growth inhibition, 48 h).
In the case of COc1cc(C2C3=C(COC3=O)Oc3cc4c(cc32)OCO4)cc(OC)c1OC(C)=O (centres undefined), the TGI is reported as > 100 µM.
Nc1ccc(-c2nc3ccccc3[nH]2)c2ccccc12 was tested, and the GI50 was 3.57 µM and the TGI was > 100 µM.
COc1ccc2c(c1OC)C(=O)OC2C1c2c(c([N+](=O)[O-])c3c(c2OC)OCO3)CCN1C (centres undefined) was tested, and the GI50 was > 100 µM and the TGI was > 100 µM.
For COC1O[C@@H]2C[C@H]3C(C)(C)CCC[C@]3(C)C3=CCCC1[C@@]32C (some centres undefined), the GI50 was > 100 µM and the TGI was > 100 µM.

These molecules were tested on SNB-75 CNS (assay: NCI tumour cell line growth inhibition, 48 h).
Work on Nc1ccc(-c2nc3ccccc3[nH]2)c2ccccc12 yielded a GI50 of 0.809 µM and a TGI of 4.39 µM.
In the case of COc1ccc2c(c1OC)C(=O)OC2C1c2c(c([N+](=O)[O-])c3c(c2OC)OCO3)CCN1C (centres undefined), the GI50 is reported as > 100 µM and the TGI is reported as > 100 µM.
In the case of COC1O[C@@H]2C[C@H]3C(C)(C)CCC[C@]3(C)C3=CCCC1[C@@]32C (some centres undefined), the GI50 is reported as > 100 µM and the TGI is reported as > 100 µM.

These molecules were tested on SR leukemia (assay: NCI tumour cell line growth inhibition, 48 h).
In the case of COc1cc(C2C3=C(COC3=O)Oc3cc4c(cc32)OCO4)cc(OC)c1OC(C)=O (centres undefined), the TGI is reported as > 100 µM.

What follows are molecules tested on SW-620 colon (assay: NCI tumour cell line growth inhibition, 48 h).
For Nc1ccc(-c2nc3ccccc3[nH]2)c2ccccc12, the GI50 was 1.4 µM and the TGI was > 100 µM.
In the case of COc1ccc2c(c1OC)C(=O)OC2C1c2c(c([N+](=O)[O-])c3c(c2OC)OCO3)CCN1C (centres undefined), the GI50 is reported as > 100 µM and the TGI is reported as > 100 µM.
COC1O[C@@H]2C[C@H]3C(C)(C)CCC[C@]3(C)C3=CCCC1[C@@]32C (some centres undefined) was tested, and the GI50 was > 100 µM and the TGI was > 100 µM.

Each molecule was assayed on T-47D breast (assay: NCI tumour cell line growth inhibition, 48 h).
In the case of Nc1ccc(-c2nc3ccccc3[nH]2)c2ccccc12, the GI50 is reported as 11.6 µM and the TGI is reported as > 61.6 µM.
For COc1ccc2c(c1OC)C(=O)OC2C1c2c(c([N+](=O)[O-])c3c(c2OC)OCO3)CCN1C (centres undefined), the GI50 was 54.1 µM and the TGI was > 100 µM.
COC1O[C@@H]2C[C@H]3C(C)(C)CCC[C@]3(C)C3=CCCC1[C@@]32C (some centres undefined) was tested, and the GI50 was > 100 µM and the TGI was > 100 µM.

These molecules were tested on TK-10 renal (assay: NCI tumour cell line growth inhibition, 48 h).
With COc1cc(C2C3=C(COC3=O)Oc3cc4c(cc32)OCO4)cc(OC)c1OC(C)=O (centres undefined) the TGI was > 100 µM.
Nc1ccc(-c2nc3ccccc3[nH]2)c2ccccc12 was tested, and the GI50 was 7.24 µM and the TGI was > 100 µM.
With COc1ccc2c(c1OC)C(=O)OC2C1c2c(c([N+](=O)[O-])c3c(c2OC)OCO3)CCN1C (centres undefined) the GI50 was > 100 µM and the TGI was > 100 µM.
COC1O[C@@H]2C[C@H]3C(C)(C)CCC[C@]3(C)C3=CCCC1[C@@]32C (some centres undefined) was tested, and the GI50 was > 100 µM and the TGI was > 100 µM.

The molecules below were run on U251 CNS (assay: NCI tumour cell line growth inhibition, 48 h).
COc1cc(C2C3=C(COC3=O)Oc3cc4c(cc32)OCO4)cc(OC)c1OC(C)=O (centres undefined) was tested, and the TGI was > 100 µM.
For Nc1ccc(-c2nc3ccccc3[nH]2)c2ccccc12, the GI50 was 4.12 µM and the TGI was 30.6 µM.
In the case of COc1ccc2c(c1OC)C(=O)OC2C1c2c(c([N+](=O)[O-])c3c(c2OC)OCO3)CCN1C (centres undefined), the GI50 is reported as > 100 µM and the TGI is reported as > 100 µM.
Molecule OC(c1cc2cc(Cl)c(Cl)cc2c2cc(C(F)(F)F)ccc12)C1CCCCN1 (centres undefined) has a GI50 of 1.72 µM and a TGI of 3.21 µM.
For COC1O[C@@H]2C[C@H]3C(C)(C)CCC[C@]3(C)C3=CCCC1[C@@]32C (some centres undefined), the GI50 was > 100 µM and the TGI was > 100 µM.

These molecules were tested on UACC-257 melanoma (assay: NCI tumour cell line growth inhibition, 48 h).
COc1cc(C2C3=C(COC3=O)Oc3cc4c(cc32)OCO4)cc(OC)c1OC(C)=O (centres undefined) was tested, and the TGI was > 100 µM.
In the case of Nc1ccc(-c2nc3ccccc3[nH]2)c2ccccc12, the GI50 is reported as 6.46 µM and the TGI is reported as > 100 µM.
COc1ccc2c(c1OC)C(=O)OC2C1c2c(c([N+](=O)[O-])c3c(c2OC)OCO3)CCN1C (centres undefined) was tested, and the GI50 was > 100 µM and the TGI was > 100 µM.
For COC1O[C@@H]2C[C@H]3C(C)(C)CCC[C@]3(C)C3=CCCC1[C@@]32C (some centres undefined), the GI50 was > 100 µM and the TGI was > 100 µM.

The molecules below were run on UACC-62 melanoma (assay: NCI tumour cell line growth inhibition, 48 h).
Nc1ccc(-c2nc3ccccc3[nH]2)c2ccccc12 was tested, and the GI50 was 7.51 µM and the TGI was > 27.6 µM.
For COc1ccc2c(c1OC)C(=O)OC2C1c2c(c([N+](=O)[O-])c3c(c2OC)OCO3)CCN1C (centres undefined), the GI50 was > 100 µM and the TGI was > 100 µM.
COC1O[C@@H]2C[C@H]3C(C)(C)CCC[C@]3(C)C3=CCCC1[C@@]32C (some centres undefined) was tested, and the GI50 was > 100 µM and the TGI was > 100 µM.

The molecules below were run on UO-31 renal (assay: NCI tumour cell line growth inhibition, 48 h).
For COc1cc(C2C3=C(COC3=O)Oc3cc4c(cc32)OCO4)cc(OC)c1OC(C)=O (centres undefined), the TGI was > 39.4 µM.
In the case of Nc1ccc(-c2nc3ccccc3[nH]2)c2ccccc12, the GI50 is reported as 5.32 µM and the TGI is reported as > 82.8 µM.
In the case of COc1ccc2c(c1OC)C(=O)OC2C1c2c(c([N+](=O)[O-])c3c(c2OC)OCO3)CCN1C (centres undefined), the GI50 is reported as > 100 µM and the TGI is reported as > 100 µM.
OC(c1cc2cc(Cl)c(Cl)cc2c2cc(C(F)(F)F)ccc12)C1CCCCN1 (centres undefined) gave a GI50 of 1.52 µM and a TGI of 3.16 µM.
CC(=O)c1c(-c2cccc3ccccc23)c(C#N)c(=S)n(C2OC(CO)C(O)C(O)C2O)c1-c1ccccc1 (centres undefined) was tested, and the GI50 was 5.09 µM and 1.59 µM and the TGI was 23.8 µM and 3.54 µM.
In the case of COC1O[C@@H]2C[C@H]3C(C)(C)CCC[C@]3(C)C3=CCCC1[C@@]32C (some centres undefined), the GI50 is reported as > 100 µM and the TGI is reported as > 100 µM.
